Measured values from a melting point compilation (Tetko et al.; mined from patent text by program, amines drawn as free bases though some values may be those of a salt).

| SMILES | melting point |
| --- | --- |
| COc1cccc(OC)c1N(COCC(C)C)C(=O)CCl | 107 to 110 °C |
| O=C(CCl)c1ccc(OCc2nnn[nH]2)cc1 | 194 to 196 °C |
| CCC(C)(C)c1ccc(Oc2cc(N)c(O)c([N+](=O)[O-])c2)c(C(C)(C)CC)c1 | 144 to 148 °C |
| CCCCCCCCCCCCCCc1ccc(C(=O)OCC)[nH]1 | 60 to 63 °C |
| CCOC(=O)Nc1ccc2nc(OCC)oc(=O)c2c1 | 191 to 193 °C |
| CC(C)(C)OC(=O)CNC1Cc2ccccc2C1 | 54 to 55 °C |
| CCOc1cc(C(C)C)ccc1C1CCN(CCCCNC(=O)c2ccc(NC(=O)c3ccc(Cl)cc3)cc2)CC1 | 242 °C |
| O=C(Nc1cnc2c(c1)nc1n2CCC1O)c1cc2cc(F)ccc2n1Cc1cccc(F)c1 (stereo not given) | 288 to 290 °C |
| O=C(NC1=NN(c2ccc(Cl)c(Cl)c2)CC1)c1ccc(Cl)cc1 | 177 to 178 °C |
| O=C(c1ccc(Cl)cc1)n1c2c(c3ccccc31)CC(C(=O)O)(C(=O)O)CC2 | 210 to 212 °C |
| O=C(O)C(=O)CC(=O)c1cn(Cc2ccccc2)c2ccccc2c1=O | 141 to 142 °C |
| CCC(N)CCCCCCCCC(C)(C)C(=O)O (stereo not given) | 164 to 165 °C |
| CCCNc1ncnc2c1ncn2Cc1c(F)cccc1Cl | 166 to 167 °C |
| CCCCCCc1ccc(N2C=CC(=C=C3C(C#N)C(=C(C#N)C#N)OC3(C)C)C=C2)cc1 (stereo not given) | 193 °C |
| N#Cc1c(C(=Nc2ccccc2)c2ccccc2)n(O)c2ccccc12 | 188 to 190 °C |
| OCC#Cc1cc(Cl)cc2nc(-c3ccccc3Cl)oc12 | 165 to 169 °C |
| Cc1cc(Br)c(Cl)c(C(=O)O)c1 | 160 °C |
| CC(=O)Nc1ccc([N+](=O)[O-])cc1OC[Si](C)(C)C | 128 °C |
| CC#CCOc1ccc(S(=O)(=O)N(C)C(C(=O)NO)c2ccc(OCCCNC(=O)OCc3ccccc3)cc2)cc1 (stereo not given) | 48 to 50 °C |
| Nc1nc2c(ncn2COCCOC(=O)c2ccccc2)c(=O)[nH]1 | 222 to 226 °C |
| Cn1c(C(F)(F)F)cc(=O)n(-c2cc(OCC#CCOc3ccccc3)c(Cl)cc2F)c1=O | 142 to 144 °C |

| SMILES | melting point |
| --- | --- |
| NC(=O)NC(C(=O)O)c1cccs1 (stereo not given) | 183 to 185 °C |
| CSc1ccc(/C=C/c2ccc(C(=O)O)cn2)cc1 | 250 to 253 °C |
| O=C(O)CCC(=O)Nc1ccc2[nH]c(=O)c3ccccc3c2c1 | 224 to 228 °C |
| COc1ccc2nc3c(cc2c1)c(C#N)nn3C | 190 to 191 °C |
| CSc1nccn1CC(=O)O | 176 °C |
| N#CN1CCc2cccc(Cl)c2CC1 | 81 to 82 °C |
| Cc1ccc2c(c1)c(=O)c1c(cnn1C)n2CC#N | 214 to 219 °C |
| O=[N+]([O-])c1cc(Cl)c([N+](=O)[O-])c(Cl)c1 | 109 to 112 °C |
| CCC1(O)CC(=O)OCc2c1cc1n(c2=O)Cc2cc3cccc(F)c3nc2-1 (stereo not given) | > 250 °C |
| COc1cc(C(=O)Nc2ccc3c(c2)CN(C)CC3)cc(OC)c1OC | 158 °C |
| CC(=O)OC1CC(COC(=O)c2ccccc2)OC1n1cc(F)c(=O)[nH]c1=O (stereo not given) | 68 to 70 °C |
| COc1ccc(C2(CCN3CCC(C(N)=O)(c4ccccc4)CC3)CCN(C(=O)c3cc(OC)c(OC)c(OC)c3)C2)cc1OC (stereo not given) | 60 to 62 °C |
| O=C(Oc1cccc(Cl)c1)c1ncn2c1[C@@H]1CCCN1C(=O)c1c(Cl)cccc1-2 | 194 to 195 °C |
| CCc1ccc(-c2ccc(CCc3ccc(C(F)(F)F)cc3)cc2)cc1 | 128 °C |
| CCOc1ccc2c(c1)C(C)(c1ccccc1Cl)C(=O)N2S(=O)(=O)c1ccc(C(=O)NC(C)(C)C)cc1 (stereo not given) | 157 °C |
| CCNC(=O)c1cccc2[nH][nH]c(=O)c12 | 209 to 210 °C |
| Cc1cccc(NC(=O)NCCC(=O)N(c2ccccc2)c2ccccc2)c1 | 179 °C |
| CC1=C(C2C=CN(C(=O)OCC(Cl)(Cl)Cl)C=C2)SC(C)C(=O)N1 (stereo not given) | 140 to 142 °C |
| CC(=O)OCC1OC(n2c(Cl)c(C=O)c3cc(Cl)c(Cl)cc32)C(O)C1O (stereo not given) | 154 to 155 °C |
| O=[N+]([O-])c1ccc(Cl)c(NC(=S)NCCCO)c1 | 127 °C |
| CC1(C)OC(c2ccc(S(C)(=O)=O)cc2)=C(c2ccc(O)cc2)C1=O | 150 to 152 °C |

| SMILES | melting point |
| --- | --- |
| CCN(CC)c1cc(C)nc(Oc2c(C)cc(C)cc2C)c1C | 180 to 181 °C |
| O=C(O)c1ccc(Sc2ccc(OCc3ccc4ccccc4n3)cc2)cc1 | 195 to 197 °C |
| COc1cc2c(cc1O)CC(C)(C)NC2 | 170 to 173 °C |
| CN(Cc1ccccc1)Cc1cnc(NC(=O)C(Cc2ccc(F)cc2)c2ccc(S(C)(=O)=O)cc2)cn1 (stereo not given) | 99 to 100 °C |
| CS(=O)(=O)OCC(Oc1ccc(F)c(C(N)=O)c1F)c1nc(-c2ccc(C(F)(F)F)cc2)c(Cl)o1 (stereo not given) | 163 °C |
| CN1Cc2c([N+](=O)[O-])ncn2-c2ccccc2C1=O | 227 to 229 °C |
| C=CCSc1nnc(OC)c(C)c1C | 51 to 53 °C |
| CCOC(=O)c1ccc(OCC(=O)O)cc1 | 129 to 130 °C |
| CC(C)C(=O)O[C@H]1[C@H](C)OC(=O)[C@@H](NC(=O)OC(C)(C)C)COC(=O)[C@@H]1CI | 168 to 171 °C |
| CCn1c(=O)sc2cc(N3C[C@H](C(N)=O)OC3=O)ccc21 | 211 to 212 °C |
| COc1cc(OC)nc(NC(=O)NS(=O)(=O)c2ccccc2CCCl)n1 | 169 to 171 °C |
| CN(C)C1(c2ccc(F)cc2)CCC(N2CCC(c3c[nH]c4ccccc34)C2)CC1 (stereo not given) | 248 to 250 °C |
| CCCc1[nH]c(C(=O)OCC)c(C)c1CCC(=O)OCC | 61.5 to 63.5 °C |
| N#Cc1c(C(F)(F)F)ccc(F)c1N | 100 to 102 °C |
| CC(=O)NC(=Cc1ccccc1)C1=NC(=Cc2ccc(F)cc2)C(=O)O1 | 172 °C |
| CCOC(=O)C(Oc1ccc(Cl)cc1)C(C)C (stereo not given) | 88 to 91 °C |
| COc1nc(C)cnc1NS(=O)(=O)c1ccccc1-c1ccc(OC(C)C(=O)O)cc1 (stereo not given) | 188 to 190 °C |
| CCS(=O)(=O)N1CCN(C(=O)OC2CCC3(CO3)C(C3(C)OC3CC=C(C)C)C2OC)CC1 (stereo not given) | 91 to 92 °C |
| CC(=O)Nc1ccc2c(c1)CC1CC(=O)NN=C21 (single isomer, unassigned; (-)) | 307 °C |

Further lines, results first:

| melting point | SMILES |
| --- | --- |
| 115 to 135 °C | COc1cc(C(=O)NS(=O)(=O)c2ccccc2C)ccc1Cc1cn(C)c2ccc(CC3CCN(C)C3=O)cc12 (stereo not given) |
| 184 to 185 °C | O=C(Nc1cccc2c(=O)cc(C(=O)O)oc12)c1ccc2c(c1)CC(CCCc1ccccc1)O2 (stereo not given) |
| 106 to 108 °C | COc1cccc2c1Oc1cc(Cl)ccc1C2 |
| 98 to 99 °C | CCOC(=O)c1cnc2nc(SCc3ccccc3)nn2c1C |
| 151 to 154 °C | COc1ccc2[nH]c3c(c2c1)CCSc1ccccc1-3 |
| 226 °C | Nc1nc(-c2ccc3ncccc3c2)c(-c2ccccn2)s1 |
| 77 to 80 °C | CC(=NOC(C)C)c1ccc2c(c1)ncn2-c1cccc(-c2cccnc2)c1 |
| 164 °C | Fc1ccc(Cn2c(NC3CCN(CCNc4ncccn4)CC3)nc3cncnc32)cc1 |
| 142 °C | N#CCOc1ccc2cc(-c3ccc(-c4ccccc4)[nH]3)ccc2c1 |
| 165 °C | CN1C(=O)CCC(C)(C)c2cc(Nc3ncc(Cl)c(N[C@@H]4CCCC[C@H]4NS(C)(=O)=O)n3)ccc21 |
| 197 to 199 °C | OCc1ccc(-c2ccc3nc(-c4ccc(Cl)cc4)cn3c2)o1 |
| 138 to 139 °C | O=C(O)C1CCCC2c3ccccc3CC12 (stereo not given) |
| 265 to 267 °C | COC(=O)c1cc(-c2cccc(C(=O)O)c2)c2cc(Cc3ccc(F)cc3)cnc2c1O |
| 122 to 127 °C | Oc1ccc(-c2nnc(CSCCCOc3ccccc3)o2)cc1 |
| 177 to 180 °C | CC1(C)Oc2ccc(C#N)cc2C(OC(=O)C2CCCN2S(=O)(=O)c2ccc([N+](=O)[O-])cc2)C1Br (stereo not given) |
| 149 to 151 °C | CCc1[nH]n(C2CCCC2)c2nc(CN3CCc4ccccc4C3)nc(=O)c1-2 |
| 51 to 54 °C | COc1ccc(N(CCN2CCC(C(=O)c3ccc(F)cc3)CC2)C(=O)c2ccc([N+](=O)[O-])cc2)c(OC)c1 |
| 140 to 142 °C | CCN1CCN(c2nc(-c3ccc(OCCO)cc3OC)cc3ccccc23)CC1 |
| 190 to 192 °C | Nc1ccc(-n2ccnc2S(=O)Cc2ccccc2N2CCOCC2)nc1 (stereo not given) |
| 138 °C | N#CCCn1nc(-c2ccc(OCc3ccccc3)cc2)sc1=S |

| melting point | SMILES |
| --- | --- |
| 228 to 230 °C | S=C1CC(c2ccccc2)=Nc2ccccc2N1 |
| 60 to 80 °C | CN(C)C1CCCC1Cc1cccc(-c2cccc(N)n2)c1 (stereo not given) |
| 160 to 163 °C | CN(C(N)=O)C1CCCc2ccccc21 (stereo not given) |
| 51 to 52 °C | CC(CC1CCCCC1)C(=O)COS(=O)(=O)c1ccccc1 (stereo not given) |
| > 300 °C | O=C(CCc1ccccc1)Oc1n[nH]c(=O)c2nc3cc(Cl)ccc3c(O)c12 |
| 146 to 148 °C | OC1(c2cccc(Cl)c2)CCN(CCCc2nnc3n2CCCCC3)CC1 |
| 196 to 198 °C | CC(C)n1nc(-c2cc(C#N)c(C(=O)O)nc2-c2ccccc2)ccc1=O |
| 81 to 82 °C | O=C(NC1(c2cccc(F)c2)CCC1)OCc1ccccc1 |
| 196 to 200 °C | Cc1ccc(OC2SCC(O)C(O)C2O)c(-c2ccncc2)n1 (stereo not given) |
| > 250 °C | Fc1ccc2[nH]c3c(ccc4cc[nH]c43)c2c1 |
| 88 to 90 °C | CCC1CCc2cc(CC(=O)O)ccc2O1 (stereo not given) |
| 208 to 209 °C | COC(=O)c1ccc(C)c(NC(=O)c2cccc([N+](=O)[O-])c2)c1 |
| 82 to 86 °C | Cc1cc(C)c(S(=O)(=O)NC(CNc2ccccc2)C(F)(F)F)c(C)c1 (stereo not given) |
| 113 to 114 °C | CCNS(=O)(=O)c1ccc(C2=C(c3cccc(F)c3)C(=O)C(C)(C)O2)cc1 |
| 124 to 125 °C | COc1ccc(C(=O)Cc2ccncc2Cl)cc1OC1CCCC1 |
| 161 to 162 °C | COc1cccc(C=C2C(=O)c3ccccc3N2C(C)=O)c1[N+](=O)[O-] |
| 150 to 155 °C | COC(=O)C1CN(C(C)=O)c2ccccc2CN1S(=O)(=O)c1ccc(OC)cc1 (stereo not given) |
| 135 to 136 °C | CCCCC(=O)c1cc2n(c1)CCc1ccccc1C2=O |
| 60 to 63 °C | CNCCN1CCn2c1nc1ccccc12 |
